Measurements taken from publication PMC7830597, “Derivatives of Tenuazonic Acid as Potential New Multi-Target Anti-Alzheimer’s Disease Agents” (Biomolecules, 2021).
“Also recorded” adds a separate entry of the source.

Assays:
[1] = Radical scavenging activity, DPPH method; conditions: DPPH assay; mean ± SEM of 3 independent experiments
Method: Therefore, they were assayed for radical scavenging activity using the DPPH method.
The final volume of the assay was 3.5 mL, corrected with MeOH to obtain different concentrations of our compound in each assay. The control solution was composed of MeOH and DPPH [14]. After 30 min, at RT, protected from light, the absorbance was measured at 517 nm (Perkin Elmer Lambda 35 spectrophotometer equipped with a temperature programmer PTP 1þ1 Peltier System, using thermostated (T¼25.0 ± 0.1 °C) 1 cm path length cells), against a blank solution (MeOH). The assays were performed in triplicate, in which the EC50 was obtained through the graphical representation of the %AA vs. the inhibitor concentration.

[2] = molecular target: T1, Aβ1-42 (Homo sapiens, UniProt P05067); experiment: Inhibition of Cu2+-induced Aβ1-42 aggregation, thioflavin T fluorescence; assay type: biochemical; conditions: inhibitor 40 µM, copper 40 µM, read-out: Inhib. Aβ Aggreg. Cu2+-Induced
T1 construct: Amyloid β peptide (Aβ1-42) was purchased from GeneCust as a lyophilised powder; purchased GeneCust
T1 sequence (P05067 672-713 limits assumed): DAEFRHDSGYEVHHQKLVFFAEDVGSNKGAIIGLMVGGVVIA
Method: The anti-amyloidogenic activity of all the compounds was also evaluated in vitro, in the absence and in presence of Cu(II), by measuring the fluorescence emission of Thioflavin T (ThT). […] The Aβ self-aggregation inhibitory activity shown by all compounds is higher than that of parent compound TA, with the exception of compound 2 (probably due to solubility issues at the experimental conditions of the assays). The fact that the reference value previously reported by us for TA (50 ± 8%) was obtained for quite different conditions, including a much higher inhibitor concentration (100 μM instead of 40 μM) is noteworthy. […] This may be due to different electronic contributions between the ketone and the ester functions. Therefore, the ester derivatives seem to be better chelators compared to TA.
(§1) The spectrofluorimetric method, based on the fluorescence emission of thioflavin T (ThT), was used to study the Aβ1-42 aggregation inhibition. Firstly, Aβ1-42 was dissolved in HFIP (1,1,1,3,3,3-Hexafluoro-2-propanol) and kept overnight at room temperature in order to obtain a dry film. Then, the film was re-dissolved in CH3CN-Na2CO3 (300μM)/NaOH (250μM) (48.3/48.3/3.4 mL v/v/v) and then phosphate buffer (pH = 8) was added. The ligand solutions were prepared with MeOH (1mg/mL) and further with phosphate buffer. For the inhibition studies of copper-induced Aβ aggregation, a solution of CuCl2 240 μM was used. As a control, a solution of 30 μL of phosphate buffer and 30 μL of Aβ1-42 was used to observe the aggregation without any inhibition, while the ligand assay solutions were composed of 20 μL of phosphate buffer, 30 μL of Aβ1-42 and 10 μL of ligand. The Cu-induced aggregation studies were similarly conducted, adding 10 μL of CuCl2 to induce the fibril aggregation. Each experiment was composed of an assay and a blank sample, where the blank sample lacks Aβ1-42, to monitor the effect of the compounds on the fluorescence emission. The samples were left to incubate in a CERTOMAT WR water bath for 24 h at 37 °C with shaking. After 24 h, a Glycine-NaOH buffer (pH = 8.5) containing ThT were added to each sample in a microplate. The fluorescence signal was monitored at 446 nm (λexc) and 486 nm (λem) with a Varian Cary Eclipse fluorimeter. Amyloid β peptide (Aβ1-42) was purchased from GeneCust as a lyophilised powder and stored at −20 °C [12, 13, 14].

[3] = molecular target: AChE of electroforus electricus (electric eel) (Electrophorus electricus, UniProt O42275); experiment: biochemical; conditions: AChE from electric eel; mean of three independent experiments ± SEM; read-out: eeAChEi IC50
Sequence of AChE of electroforus electricus (electric eel) (O42275 24-633): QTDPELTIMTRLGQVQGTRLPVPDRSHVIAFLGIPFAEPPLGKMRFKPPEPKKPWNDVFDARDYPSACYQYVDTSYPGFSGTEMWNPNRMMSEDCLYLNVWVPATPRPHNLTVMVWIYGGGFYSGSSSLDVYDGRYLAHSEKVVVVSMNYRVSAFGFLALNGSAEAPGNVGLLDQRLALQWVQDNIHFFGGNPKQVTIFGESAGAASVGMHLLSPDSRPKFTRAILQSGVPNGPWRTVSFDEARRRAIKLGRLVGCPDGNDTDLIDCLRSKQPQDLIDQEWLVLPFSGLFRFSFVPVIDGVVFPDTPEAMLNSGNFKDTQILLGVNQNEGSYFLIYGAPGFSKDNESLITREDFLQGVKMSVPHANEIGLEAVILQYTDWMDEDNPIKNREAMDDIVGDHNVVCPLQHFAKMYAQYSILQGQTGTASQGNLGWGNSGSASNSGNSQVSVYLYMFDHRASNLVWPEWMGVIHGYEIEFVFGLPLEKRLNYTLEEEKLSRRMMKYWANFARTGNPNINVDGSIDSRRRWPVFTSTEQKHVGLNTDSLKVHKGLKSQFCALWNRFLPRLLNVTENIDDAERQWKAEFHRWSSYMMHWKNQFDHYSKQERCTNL
Method: All new racemic compounds were tested as acetylcholinesterase inhibitors via an in vitro assay, following a modification of Ellman’s method in three independent experiments, using tacrine as a reference compound. […] Enzyme inhibition assays were performed using an adaptation of Ellman’s method. The readings were made in a spectrophotometer Perkin-Elmer Lambda 35 UV-Vis. Enzyme activity is measured by following the increase in yellow color produced from thiocholine when it reacts with dithiobisnitrobenzoate ion (DTNB). DTNB solution was obtained dissolving the reagent in HEPES buffer with salts, namely NaCl (50 mM) and MgCl2 (20 mM), obtaining a 3 mM solution. The enzyme AChE of electroforus electricus (electric eel) stock (500 U) was dissolved in TRIS 50 mM, pH 8.0, being posteriorly diluted to assay concentrations (5 U), obtaining an aliquot of 1 mL. The enzyme substrate used was acetylthiocholine iodide (AThCh, 16 mM), which was prepared with deionized water. The compounds tested were diluted in MeOH or DMSO (1 mg/mL, 2–7 × 10^−3 M), with further dilution, and five different concentrations were used for each compound, obtaining different percentages of AChE inhibition. The assay consists in the addition of HEPES (50 mM, pH = 8), inhibitor, AChE and MeOH in a 1 mL cuvette. The mixture was left to incubate for 15 min and, after that, AThCh and DTNB were added. The enzymatic reaction was followed through the measurements of absorbencies at 405 nm (Perkin Elmer Lambda 35 spectrophotometer equipped with a temperature programmer PTP 1þ1 Peltier System, using thermostated (T = 25.0 ± 0.1 °C) 1 cm path length cells) during 5 min. A blank solution containing all the components except the enzyme, that was substituted for equal volume of HEPES, was used. A control reaction was used using MeOH instead of the new compounds and was considered the reaction corresponding to 100% enzymatic activity. Each assay was performed in quintupled.

[4] = molecular target: T1, Aβ1-42; experiment: biochemical; conditions: for inhibition at 40 µM: read-out: Inhib. Aβ Aggreg. Self-Induced; for Inhib. Aβ Aggreg. Self-Induced: 40 µM
Method: The anti-amyloidogenic activity of all the compounds was also evaluated in vitro, in the absence and in presence of Cu(II), by measuring the fluorescence emission of Thioflavin T (ThT).
as §1, with “Then, the film was re-dissolved in CH3CN-Na2CO3 (300μM)/NaOH (250μM) (48.3/48.3/3.4 mL v/v/v) and then phosphate buffer (pH = 8) was added.” left out, “For the inhibition studies of copper-induced Aβ aggregation, a solution of CuCl2 240 μM was used.” left out

[5] = tested on: SH-SY5Y human neuroblastoma cells; experiment: Dose-response cell viability screening, MTT reduction assay; assay type: cell-based; conditions: for highest non-toxic concentration (selected concentration): SH-SY5Y cells exposed for 25 h
Method: (§2) SH-SY5Y human neuroblastoma cells (ATCC-CRL-2266) were seeded in DMEM/F12 (Dulbecco’s Modified Eagle Medium/Ham’s F-12 Nutrient Mixture; Thermo Fisher Scientific) with 10% heat inactivated fetal bovine serum, 50 U/mL penicillin and 50 U/mL streptomycin under a humidified atmosphere with 95% relative humidity at 37 °C at a 0.16 × 10^6 cells/mL density. Stock solutions from tested compounds (1, 2, 4 and 5) were prepared in DMSO at a 25 mM concentration and stored at −20 °C until needed. In order to select the highest non-toxic concentration, a dose-response screening was performed, where SH-SY5Y cells were exposed to the compounds for 25 h. The selected concentrations for each compound were: 75 µM final concentration for 1 and 2; 10 µM final concentration for 4 and 20 µM final concentration for 5. […] For the neuroprotection assays, the selected compounds were added to the cell media 1 hour prior to the incubation with Aβ1-42 or L-ascorbic acid/ferrous sulphate. Aβ1-42 or L-ascorbic acid/ferrous sulphate treatment was maintained for another 24 h. Aβ1-42 was prepared as 276.9 µM stock in sterile water and administrated in the medium at a 2.5 µM final concentration. Ferrous sulphate was freshly prepared as 0.36 M stock in water and added to the medium at 2.5 mM final concentration. L-ascorbic acid was freshly prepared as 80 mM stock in water and added to the medium at 5 mM final concentration. Aβ1-42 was purchased from Bachem (Torrance, CA, USA) and ferrous sulphate and L-ascorbic acid from Sigma Chemical Co (St. Louis, MO, USA).
(§3) Cell viability was measured by using the MTT (3-(4,5-dimethylthiazol-2-yl)-2,5-diphenyl tetrazolium bromide) reduction assay. This test is based on the presence of succinate dehydrogenase enzyme in viable cells, that allows them to metabolize MTT into a formazan. After treatment, the medium was removed, and cells were washed with 1x PBS one time to remove dead cells. 200 µL of MTT solution (0.5 mg/mL) was added to each well and incubated for 2 h protected from light. Formazan precipitates were then dissolved in DMSO and absorbance measured at 570 nm. The ability to reduce MTT was expressed as a percentage of untreated control cells.
Figure 10 Dose-response screening of compounds 1, 2, 4 and 5 on SH-SY5Y neuronal cell line. Overnight cultures were treated with a range of concentrations from 10 μM to 100 μM for 24 h and cellular viability was determined by employing the MTT reduction assay.

[6] = tested on: SH-SY5Y human neuroblastoma cells; experiment: Neuroprotection against Aβ1-42-induced toxicity, MTT; assay type: cell-based; conditions: Aβ1-42 2.5 μM 24 h; 1 h pre-incubation; compounds 1, 2 100 µM; 4 10 µM; 5 20 µM
Method: as §2, §3
Overnight cultures were treated with Aβ1-42 peptide (2.5 μM) for 24 h in the absence or in the presence of the compounds. When compounds were present, a pre-incubation of 1 h preceded the Aβ1-42 treatment. Cellular viability was determined by employing the MTT reduction assay. […] (compounds: 1, 2–100 µM; 4–10 µM; 5–20 µM).

[7] = tested on: SH-SY5Y human neuroblastoma cells; experiment: Neuroprotection against ferrous sulfate/L-ascorbic acid insult, MTT; assay type: cell-based; conditions: Fe/Asc 24 h; 1 h pre-incubation; compound 5 20 µM
Method: SH-SY5Y human neuroblastoma cells (ATCC-CRL-2266) were seeded in DMEM/F12 (Dulbecco’s Modified Eagle Medium/Ham’s F-12 Nutrient Mixture; Thermo Fisher Scientific) with 10% heat inactivated fetal bovine serum, 50 U/mL penicillin and 50 U/mL streptomycin under a humidified atmosphere with 95% relative humidity at 37 °C at a 0.16 × 10^6 cells/mL density. Stock solutions from tested compounds (1, 2, 4 and 5) were prepared in DMSO at a 25 mM concentration and stored at −20 °C until needed. In order to select the highest non-toxic concentration, a dose-response screening was performed, where SH-SY5Y cells were exposed to the compounds for 25 h. The selected concentrations for each compound were: 75 µM final concentration for 1 and 2; 10 µM final concentration for 4 and 20 µM final concentration for 5. […]
Cell viability was measured by using the MTT (3-(4,5-dimethylthiazol-2-yl)-2,5-diphenyl tetrazolium bromide) reduction assay. […] Formazan precipitates were then dissolved in DMSO and absorbance measured at 570 nm. The ability to reduce MTT was expressed as a percentage of untreated control cells.
Figure 12 Neuroprotective effect of compounds after Ferrous Sulfate (Fe)/L-Ascorbic Acid (AscH(-)) insult. […] Cellular viability was determined by employing the MTT reduction assay. […]

[8] = Aβ1-42, inhibitor 40 µM, SEM < 10%

| Compound | Antioxidant Activity EC50 [1] | inhibition at 40 µM [2] | IC50 [3] | inhibition at 40 µM [4, 8] | highest non-toxic concentration (selected concentration) [5] | protection against Aβ1-42-induced toxicity [6] | Inhib. Aβ Aggreg. Self-Induced [4, 8] | cytotoxicity on SH-SY5Y cell line ([5]; 10 μM to 100 μM, 24 h, at the active concentrations) | neuroprotection against Fe/Asc challenge [7] | inhibition at 40 µM [4] |
| --- | --- | --- | --- | --- | --- | --- | --- | --- | --- | --- |
| CCOC(=O)C1=C(O)C(C)NC1=O (stereo not shown) [Compound 3, Ethyl 4-hydroxy-5-methyl-2-oxo-2,5-dihydro-1H-pyrrole-3-carboxylate] | >30 µmol/µmol of DPPH | 63.8% | 44 ± 4 µM | 57.4% |  |  |  |  |  |  |
| O=C1C=C(NCCN2CCN(Cc3ccccc3)CC2)C(Cc2ccccc2)N1 (stereo not shown) [Compound 4, 5-Benzyl-4-((2-(4-benzylpiperazin-1-yl)ethyl)amino)-1,5-di-hydro-2H-pyrrol-2-one] | >30 µmol/µmol of DPPH |  | 16 ± 2 µM | 72 to 78.4% | 10 µM | do not confer protection | 72.0% |  |  |  |
| CC(C)C1NC(=O)C=C1NCCN1CCN(Cc2ccccc2)CC1 (stereo not shown) [Compound 5, 4-((2-(4-Benzylpiperazin-1-yl)ethyl)amino)-5-isopropyl-1,5-dihydro-2H-pyrrol-2-one] | >30 µmol/µmol of DPPH |  | 24 ± 3 µM | 72 to 78.4% | 20 µM | do not confer protection; also recorded: not able to directly protect SH-SY5Y cells from Aβ1-42-induced cell toxicity | 78.4% | non-cytotoxic; also recorded: do not show (except for compound 4) cytotoxicity | conferred neuroprotection against the Fe/Asc challenge |  |
| Nc1c2c(nc3ccccc13)CCCC2 [Tacrine, reference compound] |  |  |  |  |  |  |  |  |  | 31.2% |
